How the values were obtained:
Test in all cases: Bystander BRET endosomal trafficking (β-arrestin 1-Nluc, FYVE-mVenus), HEK293 (SSTR2 mutants);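 further: Read-out is the BRET ratio between Nluc-fused β-arrestin 1 and the early endosome marker FYVE-mVenus, measured after ligand addition with coelenterazine h as substrate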
SSTR2 mutants [1] = target: SSTR2 mutants (Homo sapiens, UniProt P30874, F265A)
Protocol: (§1) Wild-type or mutant SSTR2, β-arrestin 1-Nluc and FYVE-mVenus were co-transfected in HEK293 cells at a ratio of 1:0.5:4 on six-well plates. The next day, the transfected cells were plated on white 96-well and incubated overnight, and then cells were incubated with 90 µL HBSS containing 20 mM HEPES and coelenterazine h (5 µM) at room temperature for 40 min. After incubation, ligand was added and the signal was measured using the Synergy H1 microplate reader (BioTek) to determine a BRET ratio.

SSTR2 mutants [2] = target: SSTR2 mutants (Homo sapiens, UniProt P30874, I130A)
Protocol: as §1

SSTR2 mutants [3] = target: SSTR2 mutants (Homo sapiens, UniProt P30874, I284A); details: for Bottom: best-fit value
Protocol: as §1

SSTR2 mutants [4] = target: SSTR2 mutants (Homo sapiens, UniProt P30874, K291A); details: for Bottom: best-fit value
Protocol: as §1

SSTR2 mutants [5] = target: SSTR2 mutants (Homo sapiens, UniProt P30874, P220A)
Protocol: as §1

SSTR2 mutants [6] = target: SSTR2 mutants (Homo sapiens, UniProt P30874, R140A)
Protocol: as §1

SSTR2 mutants [7] = target: SSTR2 mutants (Homo sapiens, UniProt P30874, W269A)
Protocol: as §1

SSTR2 mutants [8] = target: SSTR2 mutants (Homo sapiens, UniProt P30874, Y312A)
Protocol: as §1

SSTR2 mutants [9] = details: for Fold of WT: Bystander BRET EC50
Protocol: as §1

Sequence of SSTR2 mutants (Homo sapiens, UniProt P30874, P220A) (P30874 whole entry P220A): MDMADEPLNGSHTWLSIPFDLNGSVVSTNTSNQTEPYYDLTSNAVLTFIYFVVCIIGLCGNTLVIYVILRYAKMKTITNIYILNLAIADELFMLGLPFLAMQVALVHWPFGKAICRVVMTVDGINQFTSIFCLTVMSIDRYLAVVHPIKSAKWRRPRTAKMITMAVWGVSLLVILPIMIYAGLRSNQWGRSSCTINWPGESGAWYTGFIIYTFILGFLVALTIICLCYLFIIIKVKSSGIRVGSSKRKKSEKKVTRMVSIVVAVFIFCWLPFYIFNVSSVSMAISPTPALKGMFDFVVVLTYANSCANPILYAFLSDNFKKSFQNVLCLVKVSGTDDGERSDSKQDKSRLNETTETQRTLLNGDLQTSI
Sequence of SSTR2 mutants (Homo sapiens, UniProt P30874, F265A) (P30874 whole entry F265A): as the sequence (P30874 whole entry P220A) above, with A220P, F265A counted along it
Sequence of SSTR2 mutants (Homo sapiens, UniProt P30874, I284A) (P30874 whole entry I284A): as the sequence (P30874 whole entry P220A) above, with A220P, I284A counted along it
Sequence of SSTR2 mutants (Homo sapiens, UniProt P30874, W269A) (P30874 whole entry W269A): as the sequence (P30874 whole entry P220A) above, with A220P, W269A counted along it
Sequence of SSTR2 mutants (Homo sapiens, UniProt P30874, Y312A) (P30874 whole entry Y312A): as the sequence (P30874 whole entry P220A) above, with A220P, Y312A counted along it
Sequence of SSTR2 mutants (Homo sapiens, UniProt P30874, K291A) (P30874 whole entry K291A): as the sequence (P30874 whole entry P220A) above, with A220P, K291A counted along it
Sequence of SSTR2 mutants (Homo sapiens, UniProt P30874, I130A) (P30874 whole entry I130A): as the sequence (P30874 whole entry P220A) above, with I130A, A220P counted along it
Sequence of SSTR2 mutants (Homo sapiens, UniProt P30874, R140A) (P30874 whole entry R140A): as the sequence (P30874 whole entry P220A) above, with R140A, A220P counted along it

For `N#Cc1cccc(-c2ccc3ncc(-c4cc(F)cc(F)c4)c(N4CCC(N)CC4)c3c2)c1O` [paltusotine], the “Bottom (best-fit)” value (SSTR2 mutants [1]; F265A-1 (run 1)) was -0.01693, the “Bottom (best-fit)” value (SSTR2 mutants [1]; F265A-2 (run 2)) was -7.978 and the “Bottom (best-fit)” value (SSTR2 mutants [1]; F265A-3 (run 3)) was -0.1955. For the same compound, the “Bottom (best-fit)” value (SSTR2 mutants [2]; I130A-1 (run 1)) was -1.998, the “Bottom (best-fit)” value (SSTR2 mutants [2]; I130A-2 (run 2)) was 0.9306 and the “Bottom (best-fit)” value (SSTR2 mutants [2]; I130A-3 (run 3)) was -2.793. For the same compound, the EC50 (SSTR2 mutants [3]) was 89.8 ± 1.28 nM, the Emax (SSTR2 mutants [3]; HEK293) was 106 ± 6.25% and the Bottom (SSTR2 mutants [3]; I284A-1 (run 1)) was -0.6254. It also gave a Bottom (SSTR2 mutants [3]; I284A-2 (run 2)) of 1.24, a Bottom (SSTR2 mutants [3]; I284A-3 (run 3)) of 0.1294 and an EC50 (SSTR2 mutants [4]) of 89.4 ± 1.33 nM. For the same compound, the Emax (SSTR2 mutants [4]; HEK293) was 86.8 ± 5.01%, the Bottom (SSTR2 mutants [4]; K291A-1 (run 1)) was 0.9895 and the Bottom (SSTR2 mutants [4]; K291A-2 (run 2)) was -3.341. The Bottom (SSTR2 mutants [4]; K291A-3 (run 3)) was -4.686, the “Bottom (best-fit)” value (SSTR2 mutants [5]; P220A-1 (run 1)) was 0.5179 and the “Bottom (best-fit)” value (SSTR2 mutants [5]; P220A-2 (run 2)) was 2.929. The “Bottom (best-fit)” value (SSTR2 mutants [5]; P220A-3 (run 3)) was -2.504, the “Bottom (best-fit)” value (SSTR2 mutants [6]; R140A-1 (run 1)) was -0.6263 and the “Bottom (best-fit)” value (SSTR2 mutants [6]; R140A-2 (run 2)) was -11.29. For the same compound, the “Bottom (best-fit)” value (SSTR2 mutants [6]; R140A-3 (run 3)) was 0.1772, the EC50 (SSTR2 mutants [7]) was 130 ± 1.65 nM and the Emax (SSTR2 mutants [7]; HEK293) was 27.2 ± 2.61%. The “Bottom (best-fit)” value (SSTR2 mutants [7]; W269A-1 (run 1)) was -0.847, the “Bottom (best-fit)” value (SSTR2 mutants [7]; W269A-2 (run 2)) was -3.759 and the “Bottom (best-fit)” value (SSTR2 mutants [7]; W269A-3 (run 3)) was 0.08484. For the same compound, the “Bottom (best-fit)” value (SSTR2 mutants [8]; Y312A-1 (run 1)) was -0.8168, the “Bottom (best-fit)” value (SSTR2 mutants [8]; Y312A-2 (run 2)) was -2.056 and the “Bottom (best-fit)” value (SSTR2 mutants [8]; Y312A-3 (run 3)) was 0.2687. For the same compound, the “Fold of WT” value (SSTR2 mutants [9]; SSTR2 F294(7.35)A) was 17.12, the “Fold of WT” value (SSTR2 mutants [9]; SSTR2 I284ECL3A) was 0.73 and the “Fold of WT” value (SSTR2 mutants [9]; SSTR2 K291(7.32)A) was 0.73. The “Fold of WT” value (SSTR2 mutants [9]; SSTR2 N276(6.55)A) was 1.19, the “Fold of WT” value (SSTR2 mutants [9]; SSTR2 W269(6.48)A) was 1.06 and the “LogEC50 (best-fit)” value (SSTR2 mutants [9]; I130A-1 (run 1)) was ~ -2.099. For the same compound, the “Span (best-fit)” value (SSTR2 mutants [9]; I130A-1 (run 1)) was ~ 8554, the “Top (best-fit)” value (SSTR2 mutants [9]; I130A-1 (run 1)) was ~ 8552 and the “LogEC50 (best-fit)” value (SSTR2 mutants [9]; I130A-2 (run 2)) was -9.856. The “Span (best-fit)” value (SSTR2 mutants [9]; I130A-2 (run 2)) was -10.4, the “Top (best-fit)” value (SSTR2 mutants [9]; I130A-2 (run 2)) was -9.472 and the “LogEC50 (best-fit)” value (SSTR2 mutants [9]; I130A-3 (run 3)) was -9.469. The “Span (best-fit)” value (SSTR2 mutants [9]; I130A-3 (run 3)) was 2.038, the “Top (best-fit)” value (SSTR2 mutants [9]; I130A-3 (run 3)) was -0.7545 and the “LogEC50 (best-fit)” value (SSTR2 mutants [9]; P220A-1 (run 1)) was -6.735. For the same compound, the “Span (best-fit)” value (SSTR2 mutants [9]; P220A-1 (run 1)) was 12.69, the “Top (best-fit)” value (SSTR2 mutants [9]; P220A-1 (run 1)) was 13.21 and the “LogEC50 (best-fit)” value (SSTR2 mutants [9]; P220A-2 (run 2)) was ~ -2.138. For the same compound, the “Span (best-fit)” value (SSTR2 mutants [9]; P220A-2 (run 2)) was ~ 22554, the “Top (best-fit)” value (SSTR2 mutants [9]; P220A-2 (run 2)) was ~ 22557 and the “LogEC50 (best-fit)” value (SSTR2 mutants [9]; P220A-3 (run 3)) was -6.08. For the same compound, the “Span (best-fit)” value (SSTR2 mutants [9]; P220A-3 (run 3)) was 20.28, the “Top (best-fit)” value (SSTR2 mutants [9]; P220A-3 (run 3)) was 17.78 and the “LogEC50 (best-fit)” value (SSTR2 mutants [9]; R140A-1 (run 1)) was -8.331. The “Span (best-fit)” value (SSTR2 mutants [9]; R140A-1 (run 1)) was 51.38, the “Top (best-fit)” value (SSTR2 mutants [9]; R140A-1 (run 1)) was 50.75 and the “LogEC50 (best-fit)” value (SSTR2 mutants [9]; R140A-2 (run 2)) was -8.178. The “Span (best-fit)” value (SSTR2 mutants [9]; R140A-2 (run 2)) was 55.99, the “Top (best-fit)” value (SSTR2 mutants [9]; R140A-2 (run 2)) was 44.7 and the “LogEC50 (best-fit)” value (SSTR2 mutants [9]; R140A-3 (run 3)) was -8.181. The “Span (best-fit)” value (SSTR2 mutants [9]; R140A-3 (run 3)) was 61.6, the “Top (best-fit)” value (SSTR2 mutants [9]; R140A-3 (run 3)) was 61.78 and the “LogEC50 (best-fit)” value (SSTR2 mutants [9]; W269A-1 (run 1)) was -6.886. For the same compound, the “Span (best-fit)” value (SSTR2 mutants [9]; W269A-1 (run 1)) was 28.05, the “Top (best-fit)” value (SSTR2 mutants [9]; W269A-1 (run 1)) was 27.2 and the “LogEC50 (best-fit)” value (SSTR2 mutants [9]; W269A-2 (run 2)) was -6.322. The “Span (best-fit)” value (SSTR2 mutants [9]; W269A-2 (run 2)) was 26.76, the “Top (best-fit)” value (SSTR2 mutants [9]; W269A-2 (run 2)) was 23 and the “LogEC50 (best-fit)” value (SSTR2 mutants [9]; W269A-3 (run 3)) was -6.81. For the same compound, the “Span (best-fit)” value (SSTR2 mutants [9]; W269A-3 (run 3)) was 22.83, the “Top (best-fit)” value (SSTR2 mutants [9]; W269A-3 (run 3)) was 22.91 and the “LogEC50 (best-fit)” value (SSTR2 mutants [9]; Y312A-1 (run 1)) was -8.087. The “Span (best-fit)” value (SSTR2 mutants [9]; Y312A-1 (run 1)) was 42.16, the “Top (best-fit)” value (SSTR2 mutants [9]; Y312A-1 (run 1)) was 41.34 and the “LogEC50 (best-fit)” value (SSTR2 mutants [9]; Y312A-2 (run 2)) was -7.939. For the same compound, the “Span (best-fit)” value (SSTR2 mutants [9]; Y312A-2 (run 2)) was 49.41 and the “Top (best-fit)” value (SSTR2 mutants [9]; Y312A-2 (run 2)) was 47.36.
